Measurements as given in PubChem BioAssay (NCI).
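Cells were grown in 96-well plates and exposed to each compound for 48 hours at five concentrations; endpoints were interpolated linearly between bracketing concentrations, or set to the highest concentration if not reached. TGI is the concentration that stops growth completely.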

Key:
Assay in all cases: NCI anticancer screen, dose series, 48 h
HT29 colon = test system: HT29 colon
ACHN renal = test system: ACHN renal
COLO 205 colon = test system: COLO 205 colon
UACC-257 melanoma = test system: UACC-257 melanoma
NCI-H23 lung = test system: NCI-H23 lung
TK-10 renal = test system: TK-10 renal
EKVX NSCLC = test system: EKVX NSCLC
RXF 393 renal = test system: RXF 393 renal
HL-60(TB) leukemia = test system: HL-60(TB) leukemia
OVCAR-5 ovarian = test system: OVCAR-5 ovarian
SR leukemia = test system: SR leukemia
OVCAR-4 ovarian = test system: OVCAR-4 ovarian
SN12C renal = test system: SN12C renal
NCI-H226 lung = test system: NCI-H226 lung
NCI/ADR-RES ovarian = test system: NCI/ADR-RES ovarian
MDA-N = test system: MDA-N
SF-539 CNS = test system: SF-539 CNS
KM12 colon = test system: KM12 colon
M14 melanoma = test system: M14 melanoma
SK-OV-3 ovarian = test system: SK-OV-3 ovarian
SNB-75 CNS = test system: SNB-75 CNS
SF-295 CNS = test system: SF-295 CNS
HS 578T breast = test system: HS 578T breast
SK-MEL-5 melanoma = test system: SK-MEL-5 melanoma
U251 CNS = test system: U251 CNS
OVCAR-8 ovarian = test system: OVCAR-8 ovarian
SK-MEL-28 melanoma = test system: SK-MEL-28 melanoma
BT-549 breast = test system: BT-549 breast
SNB-19 CNS = test system: SNB-19 CNS
HCT-15 colon = test system: HCT-15 colon
T-47D breast = test system: T-47D breast
DU-145 prostate = test system: DU-145 prostate
HOP-92 NSCLC = test system: HOP-92 NSCLC
NCI-H522 lung = test system: NCI-H522 lung
UO-31 renal = test system: UO-31 renal
MCF7 breast = test system: MCF7 breast
SK-MEL-2 melanoma = test system: SK-MEL-2 melanoma
CAKI-1 renal = test system: CAKI-1 renal
IGROV1 ovarian = test system: IGROV1 ovarian
NCI-H460 lung = test system: NCI-H460 lung
MOLT-4 leukemia = test system: MOLT-4 leukemia
K-562 leukemia = test system: K-562 leukemia
HOP-62 NSCLC = test system: HOP-62 NSCLC
LOX IMVI melanoma = test system: LOX IMVI melanoma
HCC-2998 colon = test system: HCC-2998 colon
OVCAR-3 ovarian = test system: OVCAR-3 ovarian
A549 NSCLC = test system: A549 NSCLC
MDA-MB-435 = test system: MDA-MB-435
HCT-116 colon = test system: HCT-116 colon
SW-620 colon = test system: SW-620 colon
MDA-MB-231 breast = test system: MDA-MB-231 breast
PC-3 prostate = test system: PC-3 prostate
UACC-62 melanoma = test system: UACC-62 melanoma
A498 renal = test system: A498 renal
786-0 renal = test system: 786-0 renal
MALME-3M melanoma = test system: MALME-3M melanoma
SF-268 CNS = test system: SF-268 CNS
RPMI-8226 leukemia = test system: RPMI-8226 leukemia
CCRF-CEM leukemia = test system: CCRF-CEM leukemia

SMILES: CC1(C)CCC2(C(=O)OC3OC(CO)C(O)C(O)C3O)CCC3(CO)C(=CCC4C5(C)CC(O)C(O)C(C)(C(=O)OC6OC(CO)C(O)C(O)C6O)C5CCC43C)C2C1 (centres undefined)
- TGI (HT29 colon): > 100 µM
- TGI (ACHN renal): > 100 µM
- TGI (COLO 205 colon): > 100 µM
- TGI (UACC-257 melanoma): > 100 µM
- TGI (NCI-H23 lung): > 100 µM
- TGI (TK-10 renal): > 100 µM
- TGI (EKVX NSCLC): > 100 µM
- TGI (RXF 393 renal): > 100 µM
- TGI (HL-60(TB) leukemia): > 100 µM
- TGI (OVCAR-5 ovarian): > 100 µM
- TGI (SR leukemia): > 100 µM
- TGI (OVCAR-4 ovarian): > 100 µM
- TGI (SN12C renal): > 100 µM
- TGI (NCI-H226 lung): > 100 µM
- TGI (NCI/ADR-RES ovarian): > 100 µM
- TGI (MDA-N): > 100 µM
- TGI (SF-539 CNS): > 100 µM
- TGI (KM12 colon): > 100 µM
- TGI (M14 melanoma): > 100 µM
- TGI (SK-OV-3 ovarian): > 100 µM
- TGI (SNB-75 CNS): > 100 µM
- TGI (SF-295 CNS): > 100 µM
- TGI (HS 578T breast): > 100 µM
- TGI (SK-MEL-5 melanoma): > 100 µM
- TGI (U251 CNS): > 100 µM
- TGI (OVCAR-8 ovarian): > 100 µM
- TGI (SK-MEL-28 melanoma): > 100 µM
- TGI (BT-549 breast): > 100 µM
- TGI (SNB-19 CNS): > 100 µM
- TGI (HCT-15 colon): > 100 µM
- TGI (T-47D breast): > 100 µM
- TGI (DU-145 prostate): > 100 µM
- TGI (HOP-92 NSCLC): > 100 µM
- TGI (NCI-H522 lung): > 100 µM
- TGI (UO-31 renal): > 100 µM
- TGI (MCF7 breast): > 100 µM
- TGI (SK-MEL-2 melanoma): > 100 µM
- TGI (CAKI-1 renal): > 100 µM
- TGI (IGROV1 ovarian): > 100 µM
- TGI (NCI-H460 lung): > 100 µM
- TGI (MOLT-4 leukemia): > 100 µM
- TGI (K-562 leukemia): > 100 µM
- TGI (HOP-62 NSCLC): > 100 µM
- TGI (LOX IMVI melanoma): > 100 µM
- TGI (HCC-2998 colon): > 100 µM
- TGI (OVCAR-3 ovarian): > 100 µM
- TGI (A549 NSCLC): > 100 µM
- TGI (MDA-MB-435): > 100 µM
- TGI (HCT-116 colon): > 100 µM
- TGI (SW-620 colon): > 100 µM
- TGI (MDA-MB-231 breast): > 100 µM
- TGI (PC-3 prostate): > 100 µM
- TGI (UACC-62 melanoma): > 100 µM
- TGI (A498 renal): > 100 µM
- TGI (786-0 renal): > 100 µM
- TGI (MALME-3M melanoma): > 100 µM
- TGI (SF-268 CNS): > 100 µM

SMILES: CC(C)CCCC(C)[C@H]1CC[C@H]2N=C(Nc3ccccc3)CCC[C@]12C (some centres undefined)
- TGI (HT29 colon): 4.09 µM
- TGI (COLO 205 colon): 2.67 µM
- TGI (UACC-257 melanoma): 4.85 µM
- TGI (NCI-H23 lung): 4.25 µM
- TGI (TK-10 renal): 9.33 µM
- TGI (RXF 393 renal): 2.98 µM
- TGI (HL-60(TB) leukemia): 4.7 µM
- TGI (SR leukemia): 4.33 µM
- TGI (OVCAR-4 ovarian): 14.4 µM
- TGI (SN12C renal): 3.48 µM
- TGI (NCI-H226 lung): 3.72 µM
- TGI (NCI/ADR-RES ovarian): 3.32 µM
- TGI (MDA-N): 10.9 µM
- TGI (SF-539 CNS): 3.28 µM
- TGI (KM12 colon): > 100 µM
- TGI (SK-OV-3 ovarian): 4.11 µM
- TGI (SNB-75 CNS): 3.99 µM
- TGI (SF-295 CNS): 3.1 µM
- TGI (RPMI-8226 leukemia): 4.8 µM
- TGI (HS 578T breast): 5.81 µM
- TGI (SK-MEL-5 melanoma): 3 µM
- TGI (U251 CNS): 4.33 µM
- TGI (OVCAR-8 ovarian): 3.66 µM
- TGI (SK-MEL-28 melanoma): 3.89 µM
- TGI (BT-549 breast): 7.66 µM
- TGI (SNB-19 CNS): 17.1 µM
- TGI (HCT-15 colon): 4.68 µM
- TGI (T-47D breast): 14.2 µM
- TGI (DU-145 prostate): > 100 µM
- TGI (HOP-92 NSCLC): 9.42 µM
- TGI (UO-31 renal): 3.12 µM
- TGI (MCF7 breast): 3.57 µM
- TGI (SK-MEL-2 melanoma): 3.2 µM
- TGI (CAKI-1 renal): 7.07 µM
- TGI (IGROV1 ovarian): 3.34 µM
- TGI (NCI-H460 lung): 3.92 µM
- TGI (MOLT-4 leukemia): 3.97 µM
- TGI (K-562 leukemia): 3.55 µM
- TGI (HOP-62 NSCLC): 6.12 µM
- TGI (LOX IMVI melanoma): 4.07 µM
- TGI (OVCAR-3 ovarian): 6.8 µM
- TGI (A549 NSCLC): 14.5 µM
- TGI (MDA-MB-435): 3.75 µM
- TGI (SW-620 colon): > 100 µM
- TGI (MDA-MB-231 breast): 3.04 µM
- TGI (PC-3 prostate): > 100 µM
- TGI (UACC-62 melanoma): 3.46 µM
- TGI (A498 renal): 10.8 µM
- TGI (786-0 renal): 3.45 µM
- TGI (MALME-3M melanoma): 6.39 µM
- TGI (CCRF-CEM leukemia): 25.3 µM
- TGI (SF-268 CNS): 7.17 µM
